Experimental data taken from US20230002367A1, “BIFUNCTIONAL COMPOUNDS” (Hoffmann-La Roche Inc., priority 2019, published 2023).
Where two headings read alike, the source gives them in different places.

Biological target: T1, SMARCA2 (Homo sapiens, UniProt P51531)
T1 construct: endogenous in cells
Experiment: SMARCA2 HiBiT degradation assay (cellular)
Type: cell-based
Settings: for DC50: read-out: HiBit A549 SMARCA2 IP

[1] = A549, Emax = amount of residual protein remaining in the cell following compound treatment
[2] = SMARCA2 HiBiT cells, luminescence readout, 11-point titration from 10 μM, 6 hours or 16 hours
[3] = A549, different HIBIT SMARCA2 clone (footnote a), residual protein remaining
[4] = different HIBIT SMARCA2 clone (footnote a)

T1 sequence (P51531 whole entry): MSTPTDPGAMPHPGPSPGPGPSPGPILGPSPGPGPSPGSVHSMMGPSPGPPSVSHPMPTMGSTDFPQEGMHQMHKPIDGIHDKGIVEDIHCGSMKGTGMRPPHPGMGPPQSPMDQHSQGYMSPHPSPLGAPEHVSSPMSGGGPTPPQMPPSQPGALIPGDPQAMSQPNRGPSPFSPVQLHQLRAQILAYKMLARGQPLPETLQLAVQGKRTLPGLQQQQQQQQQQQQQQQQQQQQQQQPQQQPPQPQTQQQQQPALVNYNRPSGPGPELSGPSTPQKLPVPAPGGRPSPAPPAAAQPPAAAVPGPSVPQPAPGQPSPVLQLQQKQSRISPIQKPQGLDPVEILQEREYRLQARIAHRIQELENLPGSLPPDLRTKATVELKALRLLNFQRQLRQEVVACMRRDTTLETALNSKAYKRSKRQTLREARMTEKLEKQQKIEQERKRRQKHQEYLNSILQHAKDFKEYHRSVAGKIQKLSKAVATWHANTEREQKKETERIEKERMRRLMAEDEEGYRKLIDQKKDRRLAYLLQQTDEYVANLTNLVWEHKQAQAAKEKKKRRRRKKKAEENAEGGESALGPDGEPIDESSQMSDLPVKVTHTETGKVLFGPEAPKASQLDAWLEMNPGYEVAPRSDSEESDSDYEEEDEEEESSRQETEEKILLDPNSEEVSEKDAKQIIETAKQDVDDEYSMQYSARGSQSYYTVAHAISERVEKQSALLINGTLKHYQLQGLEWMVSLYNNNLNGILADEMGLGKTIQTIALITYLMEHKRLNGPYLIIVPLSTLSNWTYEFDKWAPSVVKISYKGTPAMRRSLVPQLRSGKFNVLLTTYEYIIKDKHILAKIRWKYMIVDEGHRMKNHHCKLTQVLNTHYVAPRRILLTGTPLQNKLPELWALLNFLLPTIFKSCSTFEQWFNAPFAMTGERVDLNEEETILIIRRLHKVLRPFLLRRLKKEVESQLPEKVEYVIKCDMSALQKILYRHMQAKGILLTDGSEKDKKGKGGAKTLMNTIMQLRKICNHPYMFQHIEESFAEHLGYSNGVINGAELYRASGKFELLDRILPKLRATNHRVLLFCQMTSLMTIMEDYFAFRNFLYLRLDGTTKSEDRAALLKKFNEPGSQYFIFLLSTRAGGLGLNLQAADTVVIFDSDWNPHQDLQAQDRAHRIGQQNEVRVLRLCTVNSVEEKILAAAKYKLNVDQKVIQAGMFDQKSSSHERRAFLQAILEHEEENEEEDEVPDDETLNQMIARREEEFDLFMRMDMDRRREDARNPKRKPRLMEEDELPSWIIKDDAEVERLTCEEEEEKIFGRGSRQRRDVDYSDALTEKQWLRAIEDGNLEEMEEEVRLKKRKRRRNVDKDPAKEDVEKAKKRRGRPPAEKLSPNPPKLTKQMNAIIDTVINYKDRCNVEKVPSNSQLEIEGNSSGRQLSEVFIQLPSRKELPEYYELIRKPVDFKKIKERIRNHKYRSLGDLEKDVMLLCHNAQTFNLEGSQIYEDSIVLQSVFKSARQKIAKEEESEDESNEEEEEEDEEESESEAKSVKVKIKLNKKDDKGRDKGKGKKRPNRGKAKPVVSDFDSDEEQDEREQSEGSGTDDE

| SMILES | Emax [1] [%] | DC50 [2] [nM] | Emax [3] [%] | DC50 [4] [nM] |
| --- | --- | --- | --- | --- |
| Cc1ncsc1-c1ccc(CNC(=O)[C@@H]2C[C@@H](O)CN2C(=O)C(NC(=O)CCCCCCC(=O)N2CCC3(CC2)CCN(c2cc(-c4ccccc4O)nnc2N)CC3)C(C)(C)C)cc1 (stereo in doubt) [Example 6, (2S,4R)-1-[(2R)-2-[[8-[9-[3-amino-6-(2-hydroxyphenyl)pyridazin-4-yl]-3,9-diazaspiro[5.5]undecan-3-yl]-8-oxo-octanoyl]amino]-3,3-dimethyl-butanoyl]-4-hydroxy-N-[[4-(4-methylthiazol-5-yl)phenyl]methyl]pyrrolidine-2-carboxamide] | 54 | 2910 | – | – |
| Cc1ncsc1-c1ccc(CNC(=O)[C@@H]2C[C@@H](O)CN2C(=O)[C@@H](NC(=O)CCCCCCCCC(=O)N2CCN(c3cc(-c4ccccc4O)nnc3N)CC2)C(C)(C)C)cc1 [Example 1, (2S,4R)-1-[(2S)-2-[[10-[4-[3-amino-6-(2-hydroxyphenyl)pyridazin-4-yl]piperazin-1-yl]-10-oxo-decanoyl]amino]-3,3-dimethyl-butanoyl]-4-hydroxy-N-[[4-(4-methylthiazol-5-yl)phenyl]methyl]pyrrolidine-2-carboxamide] | 52 | 2780 | – | – |
| Cc1ncsc1-c1ccc(CNC(=O)[C@@H]2C[C@@H](O)CN2C(=O)[C@@H](NC(=O)CCCCCCCC(=O)N2CCN(CCOc3cccc(N4C5CCC4CN(c4cc(-c6ccccc6O)nnc4N)C5)c3)CC2)C(C)(C)C)cc1 [Example 2, (2S,4R)-1-[(2S)-2-[[9-[4-[2-[3-[3-[3-amino-6-(2-hydroxyphenyl)pyridazin-4-yl]-3,8-diazabicyclo[3.2.1]octan-8-yl]phenoxy]ethyl]piperazin-1-yl]-9-oxo-nonanoyl]amino]-3,3-dimethyl-butanoyl]-4-hydroxy-N-[[4-(4-methylthiazol-5-yl)phenyl]methyl]pyrrolidine-2-carboxamide] | 38 | 478 | – | – |
| Cc1ncsc1-c1ccc(CNC(=O)[C@@H]2C[C@@H](O)CN2C(=O)[C@@H](NC(=O)CCCCCCCC(=O)N2CCN(Cc3cccc(N4C5CCC4CN(c4cc(-c6ccccc6O)nnc4N)C5)c3)CC2)C(C)(C)C)cc1 [Example 3, (2S,4R)-1-[(2S)-2-[[9-[4-[[3-[3-[3-amino-6-(2-hydroxyphenyl)pyridazin-4-yl]-3,8-diazabicyclo[3.2.1]octan-8-yl]phenyl]methyl]piperazin-1-yl]-9-oxo-nonanoyl]amino]-3,3-dimethyl-butanoyl]-4-hydroxy-N-[[4-(4-methylthiazol-5-yl)phenyl]methyl]pyrrolidine-2-carboxamide] | 51 | 479 | – | – |
| Cc1ncsc1-c1ccc(CNC(=O)[C@@H]2C[C@@H](O)CN2C(=O)[C@@H](NC(=O)CCCCCCCCC(=O)N2CCN(c3cc(-c4ccccc4O)nnc3N)CC2C)C(C)(C)C)cc1 (stereo partly drawn) [Example 4, (2S,4R)-1-[(2S)-2-[[10-[4-[3-amino-6-(2-hydroxyphenyl)pyridazin-4-yl]-2-methyl-piperazin-1-yl]-10-oxo-decanoyl]amino]-3,3-dimethyl-butanoyl]-4-hydroxy-N-[[4-(4-methylthiazol-5-yl)phenyl]methyl]pyrrolidine-2-carboxamide] | 36 | 2930 | – | – |
| Cc1ncsc1-c1ccc(CNC(=O)[C@@H]2C[C@@H](O)CN2C(=O)[C@@H](NC(=O)CCCCCCCCC(=O)N2C3CCC2CN(c2cc(-c4ccccc4O)nnc2N)C3)C(C)(C)C)cc1 [Example 5, (2S,4R)-1-[(2S)-2-[[10-[3-[3-amino-6-(2-hydroxyphenyl)pyridazin-4-yl]-3,8-diazabicyclo[3.2.1]octan-8-yl]-10-oxo-decanoyl]amino]-3,3-dimethyl-butanoyl]-4-hydroxy-N-[[4-(4-methylthiazol-5-yl)phenyl]methyl]pyrrolidine-2-carboxamide] | 31 | 2510 | – | – |
| Cc1ncsc1-c1ccc(CNC(=O)[C@@H]2C[C@@H](O)CN2C(=O)[C@@H](NC(=O)CCCCCCCCCC(=O)N2CCN(Cc3cccc(N4C5CCC4CN(c4cc(-c6ccccc6O)nnc4N)C5)c3)CC2)C(C)(C)C)cc1 [Example 7, (2S,4R)-1-[(2S)-2-[[11-[4-[[3-[3-[3-amino-6-(2-hydroxyphenyl)pyridazin-4-yl]-3,8-diazabicyclo[3.2.1]octan-8-yl]phenyl]methyl]piperazin-1-yl]-11-oxo-undecanoyl]amino]-3,3-dimethyl-butanoyl]-4-hydroxy-N-[[4-(4-methylthiazol-5-yl)phenyl]methyl]pyrrolidine-2-carboxamide] | 39 | 357 | – | – |

Now from value to molecule:

| Emax [1] [%] | DC50 [2] [nM] | Emax [3] [%] | DC50 [4] [nM] | SMILES |
| --- | --- | --- | --- | --- |
| 44 | 600 | – | – | Cc1ncsc1-c1ccc([C@H](C)NC(=O)[C@@H]2C[C@@H](O)CN2C(=O)[C@@H](NC(=O)CCCCCCCCC(=O)N2CCN(c3cccc(N4CCCC(Oc5cc(-c6ccccc6O)nnc5N)C4)c3)CC2)C(C)(C)C)cc1 (mixture of isomers) [Example 91, rac-(2S,4R)-4-hydroxy-1-[rac-(2S)-2-[[10-[4-[3-[3-[3-amino-6-(2-hydroxyphenyl)pyridazin-4-yl]oxy-1-piperidyl]phenyl]piperazin-1-yl]-10-oxo-decanoyl]amino]-3,3-dimethyl-butanoyl]-N-[rac-(1S)-1-[4-(4-methylthiazol-5-yl)phenyl]ethyl]pyrrolidine-2-carboxamide] |
| 45 | 560 | – | – | Cc1ncsc1-c1ccc([C@H](C)NC(=O)[C@@H]2C[C@@H](O)CN2C(=O)[C@@H](NC(=O)CCCCCCCCCCC(=O)N2CCN(c3cccc(N4CCCC(Oc5cc(-c6ccccc6O)nnc5N)C4)c3)CC2)C(C)(C)C)cc1 (mixture of isomers) [Example 92, rac-(2S,4R)-4-hydroxy-1-[rac-(2S)-2-[[12-[4-[3-[3-[3-amino-6-(2-hydroxyphenyl)pyridazin-4-yl]oxy-1-piperidyl]phenyl]piperazin-1-yl]-12-oxo-dodecanoyl]amino]-3,3-dimethyl-butanoyl]-N-[rac-(1S)-1-[4-(4-methylthiazol-5-yl)phenyl]ethyl]pyrrolidine-2-carboxamide] |
| 55 | 579 | – | – | Cc1ncsc1-c1ccc([C@H](C)NC(=O)[C@@H]2C[C@@H](O)CN2C(=O)[C@@H](NC(=O)CCCCCCCCCCCCC(=O)N2CCN(c3cccc(N4CCCC(Oc5cc(-c6ccccc6O)nnc5N)C4)c3)CC2)C(C)(C)C)cc1 (mixture of isomers) [Example 93, rac-(2S,4R)-4-hydroxy-1-[rac-(2S)-2-[[14-[4-[3-[3-[3-amino-6-(2-hydroxyphenyl)pyridazin-4-yl]oxy-1-piperidyl]phenyl]piperazin-1-yl]-14-oxo-tetradecanoyl]amino]-3,3-dimethyl-butanoyl]-N-[rac-(1S)-1-[4-(4-methylthiazol-5-yl)phenyl]ethyl]pyrrolidine-2-carboxamide] |
| 40 | 1150 | – | – | Cc1ncsc1-c1ccc(CNC(=O)[C@@H]2C[C@@H](O)CN2C(=O)[C@@H](NC(=O)CCCCCCCCC(=O)N2CCC(CNC(=O)C3CN(c4cc(-c5ccccc5O)nnc4N)CCN3c3ccccc3)CC2)C(C)(C)C)cc1 (mixture of isomers) [Example 97, 4-[3-amino-6-(2-hydroxyphenyl)pyridazin-4-yl]-N-[[1-[10-oxo-10-[[rac-(1S)-2,2-dimethyl-1-[rac-(2S,4R)-4-hydroxy-2-[[4-(4-methylthiazol-5-yl)phenyl]methylcarbamoyl]pyrrolidine-1-carbonyl]propyl]amino]decanoyl]-4-piperidyl]methyl]-1-phenyl-piperazine-2-carboxamide] |
| 28 | 1650 | – | – | Cc1ncsc1-c1ccc(CNC(=O)[C@@H]2C[C@@H](O)CN2C(=O)[C@@H](NC(=O)CCCCCCCCC(=O)N(C)CCNC(=O)C2CN(c3cc(-c4ccccc4O)nnc3N)CCN2c2ccccc2)C(C)(C)C)cc1 (mixture of isomers) [Example 98, N′-[2-[[4-[3-amino-6-(2-hydroxyphenyl)pyridazin-4-yl]-1-phenyl-piperazine-2-carbonyl]amino]ethyl]-N′-methyl-N-[rac-(1S)-2,2-dimethyl-1-[rac-(2S,4R)-4-hydroxy-2-[[4-(4-methylthiazol-5-yl)phenyl]methylcarbamoyl]pyrrolidine-1-carbonyl]propyl]decanediamide] |
| – | – | 7.9 | 68 | Cc1ncsc1-c1ccc(CNC(=O)[C@@H]2C[C@@H](O)CN2C(=O)[C@@H](NC(=O)CCCCCCCCC(=O)N2CCN(c3ccc(N4CCCC(Oc5cc(-c6cc(F)ccc6O)nnc5N)C4)cc3)CC2)C(C)(C)C)cc1 (mixture of isomers) [Example 108, rac-(2S,4R)-4-hydroxy-N-[[4-(4-methylthiazol-5-yl)phenyl]methyl]-1-[rac-(2S)-2-[[10-[4-[4-[3-[3-amino-6-(5-fluoro-2-hydroxy-phenyl)pyridazin-4-yl]oxy-1-piperidyl]phenyl]piperazin-1-yl]-10-oxo-decanoyl]amino]-3,3-dimethyl-butanoyl]pyrrolidine-2-carboxamide] |
| – | – | 23 | 285 | Cc1ncsc1-c1ccc(CNC(=O)[C@@H]2C[C@@H](O)CN2C(=O)[C@@H](NC(=O)CCCCCC(=O)N2CCN(c3ccc(N4CCCC(Oc5cc(-c6cc(F)ccc6O)nnc5N)C4)cc3)CC2)C(C)(C)C)cc1 (mixture of isomers) [Example 109, rac-(2S,4R)-4-hydroxy-N-[[4-(4-methylthiazol-5-yl)phenyl]methyl]-1-[rac-(2S)-2-[[7-[4-[4-[3-[3-amino-6-(5-fluoro-2-hydroxy-phenyl)pyridazin-4-yl]oxy-1-piperidyl]phenyl]piperazin-1-yl]-7-oxo-heptanoyl]amino]-3,3-dimethyl-butanoyl]pyrrolidine-2-carboxamide] |
| 30 | 1920 | – | – | Cc1ncsc1-c1ccc([C@@H](C)NC(=O)[C@H]2C[C@H](O)CN2C(=O)[C@H](NC(=O)CCOCCC(=O)N2CCN(c3ccc(N4CCCC(Oc5cc(-c6ccccc6O)nnc5N)C4)cc3)CC2)C(C)(C)C)cc1 (stereo in doubt) [Example 31, (2R,4S)-1-((2R)-2-(3-(3-(4-(4-(3-((3-amino-6-(2-hydroxyphenyl)pyridazin-4-yl)oxy)piperidin-1-yl)phenyl)piperazin-1-yl)-3-oxopropoxy)propanamido)-3,3-dimethylbutanoyl)-4-hydroxy-N-((R)-1-(4-(4-methylthiazol-5-yl)phenyl)ethyl)pyrrolidine-2-carboxamide] |
